Reference: PMC8956739, “A synthetic lipopeptide targeting top-priority multidrug-resistant Gram-negative pathogens” (Nature Communications, 2022)
≈ marks a conversion by molar mass, not a printed value. Where “and” joins values, the source holds several entries; their conditions need not be identical. Equal values may be shown once. Read-outs that look alike come from different tables or passages of the source. Residues, ends and D or L forms follow the SMILES beside them.

How the values were obtained:
[1] = test system: K. pneumoniae FADDI-KP027; assay type: cell-based, Klebsiella pneumoniae
Method in brief: (§1)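 Read-out is the minimum inhibitory concentration, obtained by serially diluting compound in cation-adjusted Mueller–Hinton medium and exposing each isolate in microdilution format.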

K. pneumoniae Kp MKP103 = assay type: cell-based, Klebsiella pneumoniae; settings: polymyxin-resistant
Method in brief: as §1

[2] = test system: P. aeruginosa FADDI-PA090; assay type: cell-based, Pseudomonas aeruginosa
Method in brief: as §1

[3] = test system: P. aeruginosa FADDI-PA070; assay type: cell-based, Pseudomonas aeruginosa
Method in brief: as §1

[4] = assay type: in vitro ADME; settings: plasma
Description: (§2) The plasma pharmacokinetic profiles of F365 and polymyxin B were assessed in Swiss mice (female, 7-week-old, 22–28 g) after a single intraperitoneal dose (5 mg/kg, n = 3). Blood samples were collected at various time points over 24 h post dosing for analysis. The plasma pharmacokinetic profiles of F365 (n = 5) and polymyxin B (1 mg/kg, n = 11) in Sprague-Dawley rats (male, 10-week-old, 280 to 330 g) were assessed after intravenous administration (1 min) of F365 and polymyxin B via an indwelling jugular vein cannula. Blood samples (~0.3 mL) were collected via an indwelling carotid artery cannula at various time points over 24 h post dosing. Urine samples were collected at 4 °C using a metabolic cage during the period between 0 and 24 h post dosing. Concentrations of F365 and polymyxin B in plasma and urine samples were determined using LC-MS/MS and pharmacokinetic analysis was conducted using WinNonlin (Pharsight Corp., Mountain View, CA). The ELF pharmacokinetic profiles of F365 and polymyxin B was determined in neutropenic Swiss mice (female, 7-week-old, 22–28 g) after subcutaneous injection (40 mg/kg, n = 3). Bronchoalveolar lavage (BAL) samples were collected at various time points over 24 h post dosing from the cannulated trachea using Milli-Q water as BAL washing media. The average volume of ELF in mice was calculated by the ratio of urea concentrations in plasma and BAL samples. Concentrations of F365 and polymyxin B in plasma and BAL were analyzed by LC-MS/MS. Pharmacokinetic parameters were calculated using a non-compartment model with WinNonlin. For mouse, rat, and human plasma protein binding of F365 and polymyxin B, pooled plasma samples (n = 3) from each species were spiked with F365 or polymyxin B. The spiked plasma samples were subjected to ultrafiltration and the corresponding filtrates were analyzed by LC-MS/MS to determine the concentration of F365 and polymyxin B and the protein binding in each species.

[5] = Plasma pharmacokinetics in mice; assay type: in vivo, mouse
Description: as §2

A. baumannii FADDI-AB156 [6] = test: Neutropenic mouse pneumonia model, polymyxin-resistant isolate; assay type: in vivo; settings: for Tukey HSD diff, Pre-treatment minus treated group (Log10 CFU/lung) / Tukey HSD diff, Vehicle minus treated group (Log10 CFU/lung): Fig. e; for Log10 CFU/lung: Figure 3e, individual mice
Description: (§3) The experimental methodology for the neutropenic mouse lung infection model was previously described in detail. Briefly, Swiss mice (female, 7-week-old, 22–28 g) were rendered neutropenic by intraperitoneal administration of cyclophosphamide, 4 days (150 mg/kg) and 1 day (100 mg/kg) prior to inoculation. Lung infection was established by the administration of 25 µL of early log-phase bacterial suspension (polymyxin-susceptible or resistant isolate, 4 × 10^7 CFU/mL), directly into the lungs via the trachea using a MicroSprayer™ device. Lipopeptide solutions were prepared in sterile saline. At 2 h after inoculation, mice (n = 3 or 4) were administered lipopeptide (45–240 mg/kg/d free base) or control (sterile saline) via an intraperitoneal or subcutaneous bolus injection in three divided doses every 8 h. At 0 or 24 h after the administration of lipopeptide solution or saline (control), animals were euthanized and lungs were collected and homogenized under sterile conditions. Homogenate was filtered and the filtrate was collected, serially diluted in sterile saline, and spread on nutrient agar plates. Agar plates were incubated at 37 °C overnight for bacterial colony counting and the bacterial load of the lung (log10 CFU/lung) in each mouse was calculated. In vivo efficacy was calculated as the difference of the log10 CFU/lung values between the treated mice at 24 h and the pre-treatment (control) at 0 h (Δlog10 CFU/lung = log10 [treated] CFU/lung − log10 [pre-treatment] CFU/lung).

[7] = test system: K. pneumoniae FADDI-KP132 (mcr-1 positive); test: as above; assay type: in vivo; settings: for Tukey HSD diff, Pre-treatment minus treated group (Log10 CFU/lung) / Tukey HSD diff, Vehicle minus treated group (Log10 CFU/lung): Fig. f; for Log10 CFU/lung: Figure 3f, individual mice
Description: as §3

A. baumannii FADDI-AB30 = test: Neutropenic mouse thigh infection model; assay type: in vivo; settings: for diff of mean Log10 CFU/lung, Pre-treament minus treatment / diff of mean Log10 CFU/lung, Vehicle minus treatment / Log10 CFU/lung, Thigh 1 / Log10 CFU/lung, Thigh 2 / Log10 CFU/lung, Thigh 3 / Log10 CFU/lung, Thigh 4: 45mg/kg/d; for Log10 CFU/lung, Thigh 1 / Log10 CFU/lung, Thigh 2 / Log10 CFU/lung, Thigh 3 / Log10 CFU/lung, Thigh 4: neutropenic mouse thigh infection; for Log10 CFU/lung, Thigh 1: Thigh 1 (Supp Fig. 4); for Log10 CFU/lung, Thigh 2: Thigh 2 (Supp Fig. 4); for Log10 CFU/lung, Thigh 3: Thigh 3 (Supp Fig. 4); for Log10 CFU/lung, Thigh 4: Thigh 4 (Supp Fig. 4)
Description: The experimental methodology for the neutropenic mouse thigh infection model was previously described in detail. Briefly, Swiss mice (female, 7-week-old, 22–28 g) were rendered neutropenic by intraperitoneal administration of cyclophosphamide 4 days (150 mg/kg) and 1 day (100 mg/kg) prior to inoculation. Thigh infection was established by the administration of a 50 µL bolus of early log-phase bacterial suspension (4 × 10^8 CFU/mL) directly into each thigh of two mice in each group (n = 4 thighs); this method is well accepted in antibiotic pharmacokinetic/ pharmacodynamic studies to minimize animal usage. Lipopeptide solutions were prepared in sterile saline. At 2 h after inoculation, mice were administered a lipopeptide or control solution via an intraperitoneal bolus injection at 15 mg/kg, three doses every 8 h. At 0 and 24 h after the administration, animals were euthanized and each thigh was collected and homogenized under sterile conditions. Homogenate was filtered and the filtrate was collected, serially diluted in sterile saline, and spread on nutrient agar plates. Agar plates were incubated at 37 °C overnight for bacterial colony counting and the bacterial load of both thighs (log10 CFU/thigh) in each mouse was calculated. In vivo efficacy was calculated as the difference of the log10 CFU/thigh values between the treated mice at 24 h and the pre-treatment (control) at 0 h (Δlog10 CFU/thigh = log10 [treated] CFU/thigh − log10 [pre-treatment] CFU/thigh).

A. baumannii FADDI-AB156 [8] = test: MIC, polymyxin-resistant isolate; assay type: cell-based, Acinetobacter baumannii; settings: carbapenem-resistant
Description: MICs were determined in cation-adjusted Mueller–Hinton broth (CaMHB) by the broth micro-dilution method against ATCC strains and clinical isolates. MICs in the presence of Survanta® were determined as described above against P. aeruginosa ATCC 27853. In the 100 μL of fresh CaMHB containing polymyxins, 10% Survanta® (v/v, 2.5 mg/mL phospholipids) was added. MICs in the presence and absence of Survanta® were compared to determine the effect of binding to lung surfactant on the antibacterial activity of polymyxins.

CC[C@@H]1NC(=O)[C@@H](CC(C)C)NC(=O)[C@H](CCN)NC(=O)[C@@H](NC(=O)[C@H](CN)NC(=O)[C@@H](NC(=O)[C@H](CCN)NC(=O)c2ccc(Cl)cc2Cl)[C@@H](C)O)CCNC(=O)[C@H]([C@@H](C)O)NC(=O)[C@H](CCN)NC(=O)[C@H](CCN)NC1=O [Lipopeptide F365] (HELM PEPTIDE1{[O=C(c1ccc(Cl)cc1Cl)[*:2]].[Dab].T.[NC[C@H](N[*:1])C(=O)[*:2]].[Dab].[Dab].[dL].[Abu].[Dab].[Dab].T}$PEPTIDE1,PEPTIDE1,5:R3-11:R2$$$V2.0)
MIC K. pneumoniae FADDI-KP027 ([1]; FADDI-KP027): > 32 µg/mL
MIC K. pneumoniae Kp MKP103 (K. pneumoniae Kp MKP103): 8 µg/mL (≈ 6.9 µM)
MIC P. aeruginosa FADDI-PA090 ([2]; FADDI-PA090): 8 µg/mL (≈ 6.9 µM)
MIC P. aeruginosa FADDI-PA070 ([3]; FADDI-PA070): > 32 µg/mL
fraction unbound ([4]; human): 0.55
fraction unbound ([4]; mouse): 0.64
fraction unbound ([4]; rat): 0.67
Plasma concentration, single mouse ([5]; 5 mg/kg IP, 0.28 h): 6.79
AUC(0-inf) ([5]; mouse, in vivo, ip, 5 mg/kg): 7920 ng·h/mL
half-life ([5]; mouse, in vivo, ip, 5 mg/kg): 18 min
Tukey HSD diff, Pre-treatment minus treated group (Log10 CFU/lung) (A. baumannii FADDI-AB156 [6]; 120mg/kg/d): 2.4325
Tukey HSD diff, Vehicle minus treated group (Log10 CFU/lung) (A. baumannii FADDI-AB156 [6]; 120mg/kg/d): 3.826
Tukey HSD diff, Pre-treatment minus treated group (Log10 CFU/lung) (A. baumannii FADDI-AB156 [6]; 240mg/kg/d): 4.209
Tukey HSD diff, Vehicle minus treated group (Log10 CFU/lung) (A. baumannii FADDI-AB156 [6]; 240mg/kg/d): 5.603
Log10 CFU/lung (A. baumannii FADDI-AB156 [6]; 120mg/kg/d): 4.13 Log10 CFU/lung and 5.08 Log10 CFU/lung and 3.12 Log10 CFU/lung
Log10 CFU/lung (A. baumannii FADDI-AB156 [6]; 240mg/kg/d): 1.94 Log10 CFU/lung and 2.42 Log10 CFU/lung and 2.64 Log10 CFU/lung
reduction in CFU/lung ([7]; 240 mg/kg/d subcutaneously, 24 h, maximum over the polymyxin-resistant isolates): up to 4.65 log10 CFU/lung
Tukey HSD diff, Pre-treatment minus treated group (Log10 CFU/lung) ([7]; 120mg/kg/d): 1.795
Tukey HSD diff, Vehicle minus treated group (Log10 CFU/lung) ([7]; 120mg/kg/d): 4.6875
Tukey HSD diff, Pre-treatment minus treated group (Log10 CFU/lung) ([7]; 240mg/kg/d): 4.6475
Tukey HSD diff, Vehicle minus treated group (Log10 CFU/lung) ([7]; 240mg/kg/d): 7.54
Log10 CFU/lung ([7]; 120mg/kg/d): 4.02 Log10 CFU/lung and 5.39 Log10 CFU/lung and 2.64 Log10 CFU/lung and 2.94 Log10 CFU/lung
Log10 CFU/lung ([7]; 240mg/kg/d): 0.00 Log10 CFU/lung (2×) and 1.64 Log10 CFU/lung and 1.94 Log10 CFU/lung
reduction in CFU/thigh beyond polymyxin B (A. baumannii FADDI-AB30; 45 mg/kg/d IP in 3 divided doses every 8 h, 24 h): > 2.0 log10 CFU/thigh
diff of mean Log10 CFU/lung, Pre-treament minus treatment (A. baumannii FADDI-AB30; one way ANOVA comparison): 5.655 log10 CFU/thigh
diff of mean Log10 CFU/lung, Vehicle minus treatment (A. baumannii FADDI-AB30; one way ANOVA comparison): 5.9625 log10 CFU/thigh
diff of mean Log10 CFU/lung, Polymyxin B minus F365 (A. baumannii FADDI-AB30; both 45mg/kg/d, one way ANOVA comparison, Polymyxin B - F365): 2.515 log10 CFU/thigh
Log10 CFU/lung, Thigh 1 (A. baumannii FADDI-AB30): 2.83 log10 CFU/thigh
Log10 CFU/lung, Thigh 2 (A. baumannii FADDI-AB30): 0 log10 CFU/thigh
Log10 CFU/lung, Thigh 3 (A. baumannii FADDI-AB30): 3.13 log10 CFU/thigh
Log10 CFU/lung, Thigh 4 (A. baumannii FADDI-AB30): 0 log10 CFU/thigh
MIC A. baumannii FADDI-AB156 (A. baumannii FADDI-AB156 [8]): 4 µg/mL (≈ 3.45 µM)

Polymyxin B [reference compound]
MIC K. pneumoniae FADDI-KP027 ([1]; polymyxin-resistant): > 32 µg/mL
MIC K. pneumoniae Kp MKP103 (K. pneumoniae Kp MKP103): 16 µg/mL
MIC P. aeruginosa FADDI-PA090 ([2]; polymyxin-resistant): 4 µg/mL
MIC P. aeruginosa FADDI-PA070 ([3]; polymyxin-resistant): > 32 µg/mL
Protein binding ([4]; human): 68%
Protein binding ([4]; mouse): 95%
Protein binding ([4]; rat): 80%
half-life ([5]; mouse, in vivo, ip, 5 mg/kg): 84 min
Tukey HSD diff, Pre-treatment minus treated group (Log10 CFU/lung) (A. baumannii FADDI-AB156 [6]; 90mg/kg/d): -1.5075
Tukey HSD diff, Vehicle minus treated group (Log10 CFU/lung) (A. baumannii FADDI-AB156 [6]; 90mg/kg/d): -0.114
Log10 CFU/lung (A. baumannii FADDI-AB156 [6]; 90mg/kg/d): 8.23 Log10 CFU/lung and 8.17 Log10 CFU/lung and 7.75 Log10 CFU/lung
Tukey HSD diff, Pre-treatment minus treated group (Log10 CFU/lung) ([7]; 90mg/kg/d): -1.82
Tukey HSD diff, Vehicle minus treated group (Log10 CFU/lung) ([7]; 90mg/kg/d): 1.0725
Log10 CFU/lung ([7]; 90mg/kg/d): 7.88 Log10 CFU/lung and 8.02 Log10 CFU/lung and 6.98 Log10 CFU/lung and 6.57 Log10 CFU/lung
diff of mean Log10 CFU/lung, Pre-treament minus treatment (A. baumannii FADDI-AB30; one way ANOVA comparison): 3.14 log10 CFU/thigh
diff of mean Log10 CFU/lung, Vehicle minus treatment (A. baumannii FADDI-AB30; one way ANOVA comparison): 3.4475 log10 CFU/thigh
Log10 CFU/lung, Thigh 1 (A. baumannii FADDI-AB30): 5.16 log10 CFU/thigh
Log10 CFU/lung, Thigh 2 (A. baumannii FADDI-AB30): 5.25 log10 CFU/thigh
Log10 CFU/lung, Thigh 3 (A. baumannii FADDI-AB30): 3.38 log10 CFU/thigh
Log10 CFU/lung, Thigh 4 (A. baumannii FADDI-AB30): 2.23 log10 CFU/thigh
MIC A. baumannii FADDI-AB156 (A. baumannii FADDI-AB156 [8]): 8 µg/mL
